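How tested: cells in 96-well plates exposed to compound for 48 hours at five concentrations. GI50 = concentration required for 50% inhibition of growth.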 The source made the active and inactive calls. Cut-off read from the data, not from the text of the source: active = GI50 up to about 1.1 µM and inactive = higher.

Results on 8 molecules are retold here after ChEMBL document CHEMBL1201862, “PubChem BioAssay data set” (2004).

Test systems include HL-60; NCI-H23; UO-31; TK-10; SK-MEL-2; U-251; IGROV-1; KM12; Malme-3M; A549; OVCAR-3; SR; HCC 2998; ACHN; SNB-78; CCRF-CEM; NCI-H522; DMS-273; A498; RPMI-8226.
Holding throughout (assay): growth of human tumour cells (NCI), 48 h

With `CC(=O)NNc1nc(C)c(C(=O)/C=C/c2ccc(/C=C/C(=O)c3sc(NNC(C)=O)nc3C)cc2)s1`, the GI50 with HL-60, in the experiment with NCI-H23, in the experiment on UO-31, with TK-10, with SK-MEL-2 and with U-251 was > 100 µM (inactive) throughout. Also, the GI50 in the experiment on IGROV-1, in the experiment with KM12, in the experiment with Malme-3M, in the experiment with A549, with OVCAR-3 and in the experiment with SR was > 100 µM (inactive) each time. In addition, the GI50 in the experiment on HCC 2998, in the experiment with ACHN, in the experiment on SNB-78, with CCRF-CEM, with NCI-H522 and with DMS-273 was > 100 µM (inactive) in each case.

For the molecule `CCCP1(=O)C=C(C)C(=C(Cl)Cl)C(C)=C1` (configuration not stated), the GI50 in the experiment on HL-60 is 21.6 µM (inactive); with NCI-H23 it was 34.7 µM (inactive); in the experiment on UO-31, 46.7 µM (inactive); in the experiment on TK-10 it was > 100 µM (inactive); with SK-MEL-2, 16.3 µM (inactive); with U-251 it was > 100 µM (inactive). The GI50 with IGROV-1 is 70 µM (inactive); in the experiment on KM12 it was 24.2 µM (inactive); in the experiment on Malme-3M, 25.7 µM (inactive); in the experiment with A549, 33.7 µM (inactive); with A498, 68.9 µM (inactive); in the experiment with OVCAR-3, 84.9 µM (inactive). For the same molecule, the GI50 with SR is 24.5 µM (inactive); in the experiment on HCC 2998, 32.3 µM (inactive); in the experiment with ACHN it was 44.3 µM (inactive); in the experiment with SNB-78 it was 57.3 µM (inactive); in the experiment with CCRF-CEM it was 39.5 µM (inactive); with NCI-H522 it was 18.3 µM (inactive).

As to `O=C1/C(=C/c2ccc(Cl)cc2)COc2ccc(Br)cc21`, the GI50 with HL-60 is > 100 µM (inactive); in the experiment with NCI-H23, > 100 µM (inactive); in the experiment on UO-31, 80.4 µM (inactive); with TK-10 it was > 100 µM (inactive); with SK-MEL-2 it was > 100 µM (inactive); in the experiment on U-251, > 100 µM (inactive). For the same molecule, the GI50 in the experiment on IGROV-1, with KM12, in the experiment on Malme-3M, with A549, with A498 and in the experiment on OVCAR-3 was > 100 µM (inactive) in each case. For the same molecule, the GI50 in the experiment on HCC 2998 was > 100 µM (inactive); in the experiment on RPMI-8226, 6.22 µM (inactive); with ACHN it was > 100 µM (inactive); in the experiment on SNB-78 it was > 100 µM (inactive); in the experiment with CCRF-CEM it was 61.1 µM (inactive); in the experiment on NCI-H522, 69.7 µM (inactive). Further, the GI50 with DMS-273 was > 100 µM (inactive).

With `Cc1nnc2c3nnc(C)n3c3ccccc3n12`, the GI50 in the experiment with NCI-H23, with UO-31, in the experiment with TK-10, in the experiment with SK-MEL-2, in the experiment on U-251 and with IGROV-1 was > 100 µM (inactive) in each case. The GI50 with KM12, in the experiment with Malme-3M, with A549, in the experiment with A498, in the experiment with OVCAR-3 and with HCC 2998 was > 100 µM (inactive) in each case. Further, the GI50 in the experiment on RPMI-8226, in the experiment with ACHN, with SNB-78, in the experiment with CCRF-CEM, in the experiment with NCI-H522 and with DMS-273 was > 100 µM (inactive) in each case.

Turning to `Cc1ccc(NC(=O)C(=O)Cc2cccc[n+]2[O-])cc1C`, the GI50 with HL-60, in the experiment on NCI-H23, with UO-31, in the experiment on TK-10, in the experiment on SK-MEL-2 and in the experiment with U-251 was > 100 µM (inactive) each time. The GI50 in the experiment on IGROV-1, in the experiment on KM12, in the experiment with Malme-3M, with A549, in the experiment on A498 and in the experiment with OVCAR-3 was > 100 µM (inactive) each time. Also, the GI50 in the experiment on SR, in the experiment with HCC 2998, with RPMI-8226, in the experiment with ACHN, in the experiment on SNB-78 and with CCRF-CEM was > 100 µM (inactive) in each case. Moreover, the GI50 in the experiment with NCI-H522 is > 100 µM (inactive).

With `CCCCCCCCCCCCCC(=O)NCO`, the GI50 was > 100 µM (inactive) with HL-60; > 100 µM (inactive) with NCI-H23; 99.3 µM (inactive) in the experiment with UO-31; > 100 µM (inactive) in the experiment on TK-10; > 100 µM (inactive) in the experiment on SK-MEL-2; > 100 µM (inactive) in the experiment with U-251. In addition, the GI50 in the experiment with IGROV-1, with KM12, with Malme-3M, with A549, in the experiment on A498 and with OVCAR-3 was > 100 µM (inactive) in each case. The GI50 in the experiment with HCC 2998 was > 100 µM (inactive); in the experiment with RPMI-8226 it was > 100 µM (inactive); in the experiment on ACHN it was > 100 µM (inactive); in the experiment on SNB-78 it was > 100 µM (inactive); in the experiment on CCRF-CEM, > 100 µM (inactive); with NCI-H522, 86.3 µM (inactive).

`NC(=O)CCC(NC(=O)C(F)(F)F)C(=O)O` (configuration not stated): the GI50 in the experiment with NCI-H23, in the experiment on UO-31, with TK-10, in the experiment on SK-MEL-2, in the experiment on U-251 and with IGROV-1 was > 100 µM (inactive) each time. In addition, the GI50 with KM12, in the experiment with Malme-3M, in the experiment on A549, in the experiment on A498, in the experiment on OVCAR-3 and with HCC 2998 was > 100 µM (inactive) each time. Further, the GI50 in the experiment on RPMI-8226, in the experiment with ACHN, in the experiment on SNB-78, with CCRF-CEM, with NCI-H522 and in the experiment on DMS-273 was > 100 µM (inactive) throughout.

Consider `CCOC(=O)COc1ccc(OCC(=O)OCC)c2c1C(=O)CCCC2=O`, for which the GI50 in the experiment on HL-60, in the experiment with NCI-H23, with UO-31, in the experiment on TK-10, with SK-MEL-2 and in the experiment on U-251 was > 100 µM (inactive) in each case. The GI50 with IGROV-1 is 3.13 µM (inactive); in the experiment on KM12, > 100 µM (inactive); in the experiment with Malme-3M it was > 100 µM (inactive); with A549, > 100 µM (inactive); with A498, 0.281 µM (active); in the experiment with OVCAR-3, > 100 µM (inactive). Further, the GI50 with SR, in the experiment on HCC 2998, in the experiment with RPMI-8226, in the experiment on ACHN, in the experiment with CCRF-CEM and with NCI-H522 was > 100 µM (inactive) throughout. Also, the GI50 in the experiment with DMS-273 was > 100 µM (inactive).
